# Measured values: patent publication US11298314B2, “Injectable composition for localized fat reduction without pain, edema, and side effects, and method for preparing same” (AMI PHARM CO., LTD., priority 2017, dated 2022)
# “Also recorded” adds a separate entry of the source. Like-named read-outs stand apart in the source and are kept apart here.
# Experiments:
# mouse paw = assay: In vivo pain: moving distance and moving speed after paw injection; settings: 100 ul into paw, 2 hours after administration, 5 minutes; listed as PPC 5.0%
# Method: Specifically, 100 μl of each test material was injected into the floor of the paws of the rats, and edema was observed. […] The movement before and after injection of the test material was compared through distance and time. The movement before and after injection was measured using Noldus Video Traking system and compared with moving distance (FIG. 13A) and moving speed (FIG. 13B).
# After the edema was confirmed to be the most at 2 hours after administration, the moving distance (cm) and the moving speed (cm/s) for 5 minutes were compared using Noldus Video Traking system.
# inguinal fat pad = settings: 0.2 ml s.c. once into inguinal fat pad, 8 days post-injection
# [1] = test system: Caspase 3 in 3T3-L1 adipocytes; assay: Caspase 3 activity assay; type: cell-based; settings: 0-48 hours; listed as PPC single composition
# Method: The Caspase 3 activity assay was performed with the test materials to determine whether the cell death in the result of MTT assay was due to necrosis or apoptosis. The Caspase 3 specifically increases when apoptosis occurs and is a marker of apoptosis. […] The cells were then treated with 50 ul of cell lysis buffer (10 mM Tris-HCl, 10 mM NaH2PO4/NaHPO4, pH 7.5, 130 mM NaCl, 1% Triton X-100 and 10 mM sodium pyrophosphate) and left at 4° C. for […]. The supernatant was collected by centrifugation at 1000× rpm for 1 minute, and protein quantification was performed by BCA method. The 50 μl of reaction buffer (4 mM HEPES, pH 7.5, 10% glycerol, 2 mM dithiothreitol) and 0.5 μl of 4 mM DEVD-p-NA were added to each sample and reacted at 37° C. for 1 hour. Then wavelength was measured with a […] at 405 nm.
# [2] = test system: tissues of the injected area (rat paw); assay: H&E staining histological test (inflammation) of injected rat paw; type: in vivo, Sprague Dawley rats; settings: for Inflammation reaction: GCA 0.0, H&E of injected rat paw; for degree of inflammation (H&E) in words: rats sacrificed at 3 hours, injected paw
# Method: The tissues of the injected area were dissected, fixed with 10% formalin, and then the specimen was prepared and images were captured using an optical microscope. The degree of inflammation was evaluated as follows.
# [3] = Formulation stability of PPC injectable preparations: property, transparency, particle size, pH
# Method: The particle size was measured using a nano particle size analyzer (Microtrac Wave, MICROTRACT, USA). […] The transparency was measured using a spectrophotometer (CM-3600d, KONICA MINOLTA, JAPAN). The pH was measured with a pH meter (ST3100, OHAUS, GERMANY), and the isotonicity was measured with an osmotic pressure meter (Vapro 5600, Elitech Group, Tokyo, Japan), and viscosity was analyzed using a viscometer (Digital Viscometer CL-2, CAS, Korea).
# The washed and sterilized preparation tank was charged with the water for injection (at room temperature), and phosphatidylcholine (PPC) and benzyl alcohol were added thereto, and the mixture was stirred at 200 RPM for 2 hours under the condition of nitrogen pressure, shading and room temperature. After the completion of stirring, the mixture was transferred to an ultra-high pressure homogenizer (Nano Disperser NLM100, Ilshin Autoclave, Korea) with a nitrogen pressure. Ultra-high pressure homogenization (dispersion) was carried out at 12,000 psi for 7 cycles, and the particles were finely pulverized. Then, the pH was adjusted. After filtration through a 0.2 μm filter, the vial was filled and sealed.
# Specifically, the water for injection was put into the preparation tank which was cleaned and sterilized (room temperature), and sodium hydroxide was added to the water for injection. Then deoxycholic acid and benzyl alcohol were added, stirred and dissolved. Then, phosphatidylcholine was added thereto, and the mixture was stirred at 200 RPM for about 24 hours under shading, sealing, room temperature (25° C.), and nitrogen pressure. After completion of the stirring, the pH was adjusted (if necessary, with additional sodium hydroxide or hydrochloric acid), and it was filtered through a 0.2 μm filter, and filled into the vial and sealed.
# Then glycocholic acid and benzyl alcohol were added, stirred and dissolved. Then, phosphatidylcholine was added thereto, and the mixture was stirred at 200 RPM for about 24 hours under shading, sealing, room temperature (25° C.), and nitrogen pressure. After completion of the stirring, the pH was adjusted (if necessary, with additional sodium hydroxide or 0.001-0.6% of hydrochloric acid), and it was filtered through a 0.2 μm filter, and filled into the vial and sealed.
# The formulation stability of the PPC injectable compositions solubilized with glycocholic acid (GCA) in Tables 3 and 4 was evaluated immediately after the preparation and 30 days after the preparation (refrigerated storage).
# sole of the rat paws = assay: Measurement of skin lesion (erythema) on rat paw; type: in vivo, Sprague Dawley rats;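 also: grades − to ++++ mean no to extremely severe erythema versus before injection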
# Summary of the method: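 Male Sprague Dawley rats (6 weeks, 170–200 g) received 0.1 ml test composition or PBS injected into the paw. Paw thickness measured by caliper before, immediately after, and 1 or 2 h post-injection; sole lesions photographed and graded 0–4.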
# 3T3-L1 adipocytes = assay: Adipocyte (3T3-L1) reducing effect, MTT assay; type: cell-based; settings: for adipocyte-reducing activity compared with DCA 1.0% (Kybella): 96 hours
# Method: Tests were performed to compare the adipocyte reducing activity of the PPC single composition and the PPC composition solubilized with bile acids. Differentiated 3T3L-1 adipocyte lines were used to observe adipocyte reduction activity, and cell viability was monitored by MTT assay. […] Materials and methods employed in the following experiments are described below. In the following, % of the composition refers to % (w/v).
# The specific test methods are as follows. […] The cells were washed twice with PBS, treated with MTT reagent (50 μl) and left at 37° C. for 2 hours. After removing the supernatant, MTT formazan crystals were dissolved in DMSO and the absorbance was measured at 540 nm using a microplate reader.
# The 3T3-L1 adipocyte (ATCC) was cultured in Dulbecco's modified eagle medium (DMEM) (Invitrogen) supplemented with 10% fetal bovine serum, 100 units/ml penicillin and 100 μg/ml streptomycin under the condition of 5% CO2 and 37° C. […] Subsequently, the medium was replaced with DMEM medium containing 1 μg/ml insulin (Sigma), and the culture medium was maintained and changed every 2 to 3 days until the degree of differentiation reaches maximum. If it took more than 7 days, the cells were kept in normal DMEM culture medium until starting the tests. […] After the cells were incubated for 3 hours under the condition of 37° C. and 5% CO2, the MTT solution was removed.
# paw of the rats = assay: Rat paw edema; type: in vivo, Sprague Dawley rats; settings: for degree of edema, 1 hour after administration / degree of edema, 2 hours after administration / degree of edema, Immediately after administration: 0.1 ml into rat paw, swelling vs before injection; for degree of edema in words: 2 hours after administration, rat paw
# Summary of the method: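 Male Sprague Dawley rats (6 weeks old, 170–200 g) received 0.1 ml of PBS or test composition into the paw. Paw thickness measured by caliper before, immediately after, and 1 or 2 h post-injection; edema graded 0–4, with injection-site skin lesions photographed.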
# [4] = PPC single composition 2.50% (w/v)
# [5] = PPC single composition 5.00% (w/v)
# [6] = PPC single composition 7.50% (w/v)
# [7] = PPC single composition 10.0% (w/v)
# [8] = PPC single composition 12.5% (w/v)
# [9] = PPC single composition 15.0% (w/v)
# [10] = PPC single composition 1.25% (w/v)
substance,measurement,setting,value
"1,2-diacyl-sn-glycero-3-phosphocholine [PPC]",change of moving distance and moving speed,mouse paw,not changed or slightly increased; also recorded: wasn't changed or was slightly increased
same,"inflammation at the site of administration, dermal and epidermal tissues",inguinal fat pad,no inflammatory cells such as neutrophils
same,histological change of adipocytes in fat tissue,inguinal fat pad; listed as PPC 5.0%,size of adipocytes was reduced
same,histological change of adipocytes in fat tissue,inguinal fat pad; listed as PPC 15.0%,development of macrophages was confirmed around adipocytes
same,histological change of adipocytes in fat tissue,inguinal fat pad; listed as PPC single composition,adipocyte apoptosis and degradation were induced in a concentration-dependent manner
same,caspase-3 activity,[1],time-dependent effect of inducing caspase-3 activity to a considerable level; also recorded: time-dependent effect of inducing caspase-3 activity to a considerable extent
same,Inflammation reaction,[2]; [4],−
same,Inflammation reaction,[2]; [5],−
same,Inflammation reaction,[2]; [6],−
same,Inflammation reaction,[2]; [7],+
same,Inflammation reaction,[2]; [8],+
same,Inflammation reaction,[2]; [9],++
same,degree of inflammation (H&E) in words,[2]; listed as PPC 10.0%,Mild
same,degree of inflammation (H&E) in words,[2]; listed as PPC 12.5%,Mild
same,degree of inflammation (H&E) in words,[2]; listed as PPC 15.0%,moderate
same,formulation stability / property in words,[3],poor formulation stability
same,"grade of skin lesion (erythema), 1 hour after administration",sole of the rat paws; [10],−
same,"grade of skin lesion (erythema), 2 hours after administration",sole of the rat paws; [10],−
same,"grade of skin lesion (erythema), Immediately after administration",sole of the rat paws; [10],−
same,"grade of skin lesion (erythema), 1 hour after administration",sole of the rat paws; [4],−
same,"grade of skin lesion (erythema), 2 hours after administration",sole of the rat paws; [4],−
same,"grade of skin lesion (erythema), Immediately after administration",sole of the rat paws; [4],−
same,"grade of skin lesion (erythema), 1 hour after administration",sole of the rat paws; [5],−
same,"grade of skin lesion (erythema), 2 hours after administration",sole of the rat paws; [5],−
same,"grade of skin lesion (erythema), Immediately after administration",sole of the rat paws; [5],−
same,"grade of skin lesion (erythema), 1 hour after administration",sole of the rat paws; [6],−
same,"grade of skin lesion (erythema), 2 hours after administration",sole of the rat paws; [6],−
same,"grade of skin lesion (erythema), Immediately after administration",sole of the rat paws; [6],−
same,"grade of skin lesion (erythema), 1 hour after administration",sole of the rat paws; [7],−
same,"grade of skin lesion (erythema), 2 hours after administration",sole of the rat paws; [7],−
same,"grade of skin lesion (erythema), Immediately after administration",sole of the rat paws; [7],−
same,"grade of skin lesion (erythema), 1 hour after administration",sole of the rat paws; [8],−
same,"grade of skin lesion (erythema), 2 hours after administration",sole of the rat paws; [8],−
same,"grade of skin lesion (erythema), Immediately after administration",sole of the rat paws; [8],−
same,"grade of skin lesion (erythema), 1 hour after administration",sole of the rat paws; [9],−
same,"grade of skin lesion (erythema), 2 hours after administration",sole of the rat paws; [9],−
same,"grade of skin lesion (erythema), Immediately after administration",sole of the rat paws; [9],−
same,adipocyte viability / adipocyte-reducing activity,"3T3-L1 adipocytes; 24 to 96 hours, various concentrations, listed as PPC single composition",reduced adipocyte viability in time and concentration dependent manner
same,adipocyte-reducing activity compared with DCA 1.0% (Kybella),3T3-L1 adipocytes; listed as PPC 5%,equivalent
same,adipocyte-reducing activity compared with DCA 1.0% (Kybella),3T3-L1 adipocytes; listed as PPC 5.0%,similar; also recorded: equivalent
same,concentration of phosphatidylcholine with no lipolysis effect,3T3-L1 adipocytes; FIGS. 7A to 7D,less than 0.625 % (w/v)
same,"degree of edema, 1 hour after administration",paw of the rats; listed as PPC 1.25%,"+ (mild edema [+, (the degree of swelling was 1-20% compared to before the injection)])"
same,"degree of edema, 2 hours after administration",paw of the rats; listed as PPC 1.25%,"+ (mild edema [+, (the degree of swelling was 1-20% compared to before the injection)])"
same,"degree of edema, Immediately after administration",paw of the rats; listed as PPC 1.25%,"+ (mild edema [+, (the degree of swelling was 1-20% compared to before the injection)])"
same,"degree of edema, 1 hour after administration",paw of the rats; listed as PPC 2.50%,"+ (mild edema [+, (the degree of swelling was 1-20% compared to before the injection)])"
same,"degree of edema, 2 hours after administration",paw of the rats; listed as PPC 2.50%,"+ (mild edema [+, (the degree of swelling was 1-20% compared to before the injection)])"
same,"degree of edema, Immediately after administration",paw of the rats; listed as PPC 2.50%,"+ (mild edema [+, (the degree of swelling was 1-20% compared to before the injection)])"
same,"degree of edema, 1 hour after administration",paw of the rats; listed as PPC 5.00%,"+ (mild edema [+, (the degree of swelling was 1-20% compared to before the injection)])"
same,"degree of edema, 2 hours after administration",paw of the rats; listed as PPC 5.00%,"+ (mild edema [+, (the degree of swelling was 1-20% compared to before the injection)])"
same,"degree of edema, Immediately after administration",paw of the rats; listed as PPC 5.00%,"+ (mild edema [+, (the degree of swelling was 1-20% compared to before the injection)])"
same,"degree of edema, 1 hour after administration",paw of the rats; listed as PPC 7.50%,"+ (mild edema [+, (the degree of swelling was 1-20% compared to before the injection)])"
same,"degree of edema, 2 hours after administration",paw of the rats; listed as PPC 7.50%,"+ (mild edema [+, (the degree of swelling was 1-20% compared to before the injection)])"
same,"degree of edema, Immediately after administration",paw of the rats; listed as PPC 7.50%,"++ (moderate edema [++, (the degree of swelling was 20-40% compared to before the injection)])"
same,"degree of edema, 1 hour after administration",paw of the rats; listed as PPC 10.0%,"+ (mild edema [+, (the degree of swelling was 1-20% compared to before the injection)])"
same,"degree of edema, 2 hours after administration",paw of the rats; listed as PPC 10.0%,"+ (mild edema [+, (the degree of swelling was 1-20% compared to before the injection)])"
same,"degree of edema, Immediately after administration",paw of the rats; listed as PPC 10.0%,"++ (moderate edema [++, (the degree of swelling was 20-40% compared to before the injection)])"
same,"degree of edema, 1 hour after administration",paw of the rats; listed as PPC 12.5%,"++ (moderate edema [++, (the degree of swelling was 20-40% compared to before the injection)])"
same,"degree of edema, 2 hours after administration",paw of the rats; listed as PPC 12.5%,"++ (moderate edema [++, (the degree of swelling was 20-40% compared to before the injection)])"
same,"degree of edema, Immediately after administration",paw of the rats; listed as PPC 12.5%,"++ (moderate edema [++, (the degree of swelling was 20-40% compared to before the injection)])"
same,"degree of edema, 1 hour after administration",paw of the rats; listed as PPC 15.0%,"++ (moderate edema [++, (the degree of swelling was 20-40% compared to before the injection)])"
same,"degree of edema, 2 hours after administration",paw of the rats; listed as PPC 15.0%,"++ (moderate edema [++, (the degree of swelling was 20-40% compared to before the injection)])"
same,"degree of edema, Immediately after administration",paw of the rats; listed as PPC 15.0%,"+++ (severe edema [+++, (the degree of swelling was 40-60% compared to before the injection)])"
same,degree of edema in words,paw of the rats; listed as PPC 12.5%,moderate
same,degree of edema in words,paw of the rats; listed as PPC 15.0%,moderate
